The molecules below were run against GLP1R (Homo sapiens, UniProt P43220) (assay: GLP1R cAMP HTRF assay, HEK293/GLP-1R/CRE/Luc (HEK293T cells)). Details: read-out: EC50.
Type: cell-based
Outline: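 cAMP accumulation via HTRF after 30 min, 37 °C exposure of 1000 receptor-expressing cells/well to compound (0.5% DMSO final) in IBMX (500 μM)/0.1% BSA DPBS.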

GLP1R, sequence (P43220 24-463): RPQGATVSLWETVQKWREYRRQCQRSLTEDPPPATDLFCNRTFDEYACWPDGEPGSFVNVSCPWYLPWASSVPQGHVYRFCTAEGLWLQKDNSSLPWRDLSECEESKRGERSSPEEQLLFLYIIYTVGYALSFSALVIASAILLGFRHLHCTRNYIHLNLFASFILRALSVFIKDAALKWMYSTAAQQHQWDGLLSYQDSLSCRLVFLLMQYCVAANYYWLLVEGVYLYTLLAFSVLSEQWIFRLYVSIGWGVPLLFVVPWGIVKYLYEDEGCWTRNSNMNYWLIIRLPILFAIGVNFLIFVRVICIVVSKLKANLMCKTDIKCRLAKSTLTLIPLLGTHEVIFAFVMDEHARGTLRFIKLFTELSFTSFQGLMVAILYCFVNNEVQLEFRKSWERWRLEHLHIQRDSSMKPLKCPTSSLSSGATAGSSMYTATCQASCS

| SMILES | EC50 [nM] |
| --- | --- |
| COc1ccc(COc2cccc(C3=CCN(Cc4nc5ccc(C(=O)O)cc5n4C[C@@H]4CCO4)CC3)n2)cc1 [Compound 118, (S)-2-((6-((4-methoxybenzyl)oxy)-3′,6′-dihydro-[2,4′-bipyridin]-1′(2H)-yl)methyl)-1-(oxetan-2-ylmethyl)-1H-benzo[d]imidazole-6-carboxylic acid] | ≤ 15 |
| COc1ccc(COc2cccc(C3=CCN(Cc4nc5ccc(C(=O)O)cc5n4C[C@@H]4CCO4)CC3)n2)cn1 [Compound 119, (S)-2-((6-((6-methoxypyridin-3-yl)methoxy)-3′,6′-dihydro-[2,4′-bipyridin]-1(2′H)-yl)methyl)-1-(oxetan-2-ylmethyl)-1H-benzo[d]imidazole-6-carboxylic acid] | ≤ 15 |
| O=C(O)c1ccc2nc(CN3CC=C(c4cccc(OCc5ccc(OC(F)(F)F)cc5)n4)CC3)n(C[C@@H]3CCO3)c2c1 [Compound 120, (S)-1-(oxetan-2-ylmethyl)-2-((6-((4-(trifluoromethoxy)benzyl)oxy)-3′,6′-dihydro-[2,4′-bipyridin]-1′(2′H)-yl)methyl)-1H-benzo[d]imidazole-6-carboxylic acid] | ≤ 15 |
| O=C(O)c1ccc2nc(CN3CC=C(c4cccc(OCc5ccc(OC(F)(F)F)nc5)n4)CC3)n(C[C@@H]3CCO3)c2c1 [Compound 121, (S)-1-(oxetan-2-ylmethyl)-2-((6-((6-(trifluoromethoxy)pyridin-3-yl)methoxy)-3′,6′-dihydro-[2,4′-bipyridin]-1′(2′H)-yl)methyl)-1H-benzo[d]imidazole-6-carboxylic acid] | ≤ 150 |
| O=C(O)c1ccc2nc(CN3CC=C(c4ncc(F)c(NCc5ccc(Cl)cc5F)n4)CC3)n(C[C@@H]3CCO3)c2c1 [Compound 122, (S)-2-((4-(4-(4-chloro-2-fluorobenzylamino)-5-fluoropyrimidin-2-yl)-5,6-dihydropyridin-1(2H)-yl)methyl)-1-(oxetan-2-ylmethyl)-1H-benzo[d]imidazole-6-carboxylic acid] | ≤ 150 |
| O=C(O)c1ccc2nc(CN3CC=C(c4ncc(F)c(OCc5ccc(Cl)cc5F)n4)CC3)n(C[C@@H]3CCO3)c2c1 [Compound 123] | ≤ 15 |
| O=C(O)c1ccc2nc(CN3CC=C(c4nccc(NCc5ccc(Cl)cc5F)n4)CC3)n(C[C@@H]3CCO3)c2c1 [Compound 124, (S)-2-((4-(4-((4-chloro-2-fluorobenzyl)amino)pyrimidin-2-yl)-5,6-dihydropyridin-1(2H)-yl)methyl)-1-(oxetan-2-ylmethyl)-1H-benzo[d]imidazole-6-carboxylic add] | ≤ 1000 |
| O=C(O)c1ccc2nc(CN3CC=C(c4ccnc(NCc5ccc(Cl)cc5F)n4)CC3)n(C[C@@H]3CCO3)c2c1 [Compound 125, (S)-2-((4-(2-((4-chloro-2-fluorobenzyl)amino)pyrimidin-4-yl)-3,6-dihydropyridin-1(2H)-yl)methyl)-1-(oxetan-2-ylmethyl)-1H-benzo[d]imidazole-6-carboxylic add] | ≤ 150 |
| O=C(O)c1ccc2nc(CN3CC=C(c4nc(OCc5ccc(Cl)cc5F)ncc4F)CC3)n(C[C@@H]3CCO3)c2c1 [Compound 126, (S)-2-((4-(2-(4-chloro-2-fluorobenzyloxy)-5-fluoropyrimidin-4-yl)-5,6-dihydropyridin-1(2H)-yl)methyl)-1-(oxetan-2-ylmethyl)-1H-benzo[d]imidazole-6-carboxylic acid] | ≤ 15 |
| O=C(O)c1ccc2nc(CN3CC=C(c4cc(NCc5ccc(Cl)cc5F)ccc4F)CC3)n(C[C@@H]3CCO3)c2c1 [Compound 127, (S)-2-((4-(5-((4-chloro-2-fluorobenzyl)amino)-2-fluorophenyl)-3,6-dihydropyridin-1(2H)-yl)methyl)-1-(oxetan-2-ylmethyl)-1H-benzo[d]imidazole-6-carboxylic acid] | ≤ 150 |
| O=C(O)c1ccc2nc(CN3CC=C(c4cc(OCc5ccc(Cl)cc5F)ncc4F)CC3)n(C[C@@H]3CCO3)c2c1 [Compound 128, (S)-2-((2′-((4-chloro-2-fluorobenzyl)oxy)-5′-fluoro-3,6-dihydro-[4,4′-bipyridin]-1(2H)-yl)methyl)-1-(oxetan-2-ylmethyl)-1H-benzo[d]imidazole-6-carboxylic acid] | ≤ 150 |
| O=C(O)c1ccc2nc(CN3CC=C(c4ccc(F)c(NCc5ccc(Cl)cc5F)c4)CC3)n(C[C@@H]3CCO3)c2c1 [Compound 129, (S)-2-((4-(3-((4-chloro-2-fluorobenzyl)amino)-4-fluorophenyl)-3,6-dihydropyridin-1(2H)-yl)methyl)-1-(oxetan-2-ylmethyl)-1H-benzo[d]imidazole-6-carboxylic acid] | ≤ 15 |
| O=C(O)c1ccc2nc(CN3CC=C(c4ccnc(NCc5ccc(Cl)cc5F)c4)CC3)n(C[C@@H]3CCO3)c2c1 [Compound 130, (S)-2-((2′-((4-chloro-2-fluorobenzyl)amino)-3,6-dihydro-[4,4′-bipyridin]-1(2H)-yl)methyl)-1-(oxetan-2-ylmethyl)-1H-benzo[d]imidazole-6-carboxylic add] | ≤ 1000 |

Next, values leading:

| EC50 [nM] | SMILES |
| --- | --- |
| ≤ 15 | O=C(O)c1ccc2nc(CN3CC=C(c4nc(OCc5ccc(Cl)cc5F)c(F)cc4F)CC3)n(C[C@@H]3CCO3)c2c1 [Compound 131, (S)-2-((4-(6-(4-chloro-2-fluorobenzyloxy)-3,5-difluoropyridin-2-yl)-5,6-dihydropyridin-1(2H)-yl)methyl)-1-(oxetan-2-ylmethyl)-1H-benzo[d]imidazole-6-carboxylic add] |
| ≤ 1000 | O=C(O)c1ccc2nc(CN3CC=C(c4cc(OCc5ccc(Cl)cc5F)c(F)cc4F)CC3)n(C[C@@H]3CCO3)c2c1 [Compound 132, (S)-2-((4-(5-((4-chloro-2-fluorobenzyl)oxy)-2H-difluorophenyl)-3,6-dihydropyridin-1(2H)-yl)methyl)-1-(oxetan-2-ylmethyl)-1H-benzo[d]imidazole-6-carboxylic acid] |
| ≤ 15 | O=C(O)c1ccc2nc(CN3CC=C(c4nc(NCc5ccc(Cl)cc5F)c(F)cc4F)CC3)n(C[C@@H]3CCO3)c2c1 [Compound 133, (S)-2-((4-(6-(4-chloro-2-fluorobenzylamino)-3,5-difluoropyridin-2-yl)-5,6-dihydropyridin-1(2H)-yl)methyl)-1-(oxetan-2-ylmethyl)-1H-benzo[d]imidazole-6-carboxylic acid] |
| ≤ 15 | O=C(O)c1ccc2nc(CN3CC=C(c4cccc(OCc5cccc(C(F)(F)F)c5)n4)CC3)n(C[C@@H]3CCO3)c2c1 [Compound 134, (S)-1-(oxetan-2-ylmethyl)-2-((6-((3-(trifluoromethyl)benzyl)oxy)-3′,6′-dihydro-[2,4′-bipyridin]-1′(2H)-yl)methyl)-1H-benzo[d]imidazole-6-carboxylic acid] |
| ≤ 150 | O=C(O)c1ccc2nc(CN3CC=C(c4cccc(OCc5ccccc5C(F)(F)F)n4)CC3)n(C[C@@H]3CCO3)c2c1 [Compound 135, (S)-1-(oxetan-2-ylmethyl)-2-((6-((2-(trifluoromethyl)benzyl)oxy)-3′,6′-dihydro-[2,4′-bipyridin]-1′(2′H)-yl)methyl)-1H-benzo[d]imidazole-6-carboxylic acid] |
| ≤ 15 | O=C(O)c1ccc2nc(CN3CC=C(c4cccc(OCc5ccccc5Cl)n4)CC3)n(C[C@@H]3CCO3)c2c1 [Compound 136, (S)-2-((6-((2-chlorobenzyl)oxy)-3′,6′-dihydro-[2,4′-bipyridin]-1′(2′H)-yl)methyl)-1-(oxetan-2-ylmethyl)-1H-benzo[d]imidazole-6-carboxylic acid] |
| ≤ 1000 | O=C(O)c1ccc2nc(CN3CC=C(c4cccc(OCc5cccc(Cl)c5)n4)CC3)n(C[C@@H]3CCO3)c2c1 [Compound 137, (S)-2-((6-((3-chlorobenzyl)oxy)-3′,6′-dihydro-[2,4′-bipyridin]-1′(2′H)-yl)methyl)-1-(oxetan-2-ylmethyl)-1H-benzo[d]imidazole-6-carboxylic add] |
| ≤ 1000 | O=C(O)c1ccc2nc(CN3CC=C(c4cccc(OCc5c(Cl)cccc5Cl)n4)CC3)n(C[C@@H]3CCO3)c2c1 [Compound 138] |
| ≤ 150 | O=C(O)c1ccc2nc(CN3CC=C(c4cccc(OCc5cc(Cl)cc(Cl)c5)n4)CC3)n(C[C@@H]3CCO3)c2c1 [Compound 139, (S)-2-((6-((3,5-dichlorobenzyl)oxy)-3′,6′-dihydro-[2,4′-bipyridin]-1′(2′H)-yl)methyl)-1-(oxetan-2-ylmethyl)-1H-benzo[d]imidazole-6-carboxylic acid] |
| ≤ 150 | O=C(O)c1ccc2nc(CN3CC=C(c4cccc(OCc5cc(Cl)ccc5F)n4)CC3)n(C[C@@H]3CCO3)c2c1 [Compound 140, (S)-2-((6-((5-chloro-2-fluorobenzyl)oxy)-3′,6′-dihydro-[2,4′-bipyridin]-1′(2′H)-yl)methyl)-1-(oxetan-2-ylmethyl)-1H-benzo[d]imidazole-6-carboxylic add] |
| ≤ 15 | O=C(O)c1ccc2nc(CN3CC=C(c4cccc(OCc5ccc(F)cc5F)n4)CC3)n(C[C@@H]3CCO3)c2c1 [Compound 141, (S)-2-((6-((2H-difluorobenzyl)oxy)-5′,6′-dihydro-[2,4′-bipyridin]-1′(2′H)-yl)methyl)-1-(oxetan-2-ylmethyl)-1H-benzo[d]imidazole-6-carboxylic add] |
| ≤ 150 | O=C(O)c1ccc2nc(CN3CC=C(c4cccc(OCc5cc(F)cc(F)c5)n4)CC3)n(C[C@@H]3CCO3)c2c1 [Compound 142, (S)-2-((6-((3,5-difluorobenzyl)oxy)-3′,6′-dihydro-[2,4′-bipyridin]-1′(2′H)-yl)methyl)-1-(oxetan-2-ylmethyl)-1H-benzo[d]imidazole-6-carboxylic acid] |
| ≤ 15 | O=C(O)c1ccc2nc(CN3CC=C(c4cccc(OCc5cc(Cl)cc(C(F)(F)F)c5)n4)CC3)n(C[C@@H]3CCO3)c2c1 [Compound 143, (S)-2-((6-((3-chloro-5-(trifluoromethyl)benzyl)oxy)-3′,6′-dihydro-[2H′-bipyridin]-1′(2′H)-yl)methyl)-1-(oxetan-2-ylmethyl)-1H-benzo[d]imidazole-6-carboxylic acid] |
| ≤ 15 | O=C(O)c1ccc2nc(CN3CC=C(c4cccc(OCc5ccc(F)cc5Cl)n4)CC3)n(C[C@@H]3CCO3)c2c1 [Compound 144, (S)-2-((6-((2-chloro-4-fluorobenzyl)oxy)-3′,6′-dihydro-[2,4′-bipyridin]-1′(2′H)-yl)methyl)-1-(oxetan-2-ylmethyl)-1H-benzo[d]imidazole-6-carboxylic acid] |

Reference: patent publication US10844049B2, “GLP-1R agonists and uses thereof” (QILU REGOR THERAPEUTICS INC., priority 2018, dated 2020)
